{"source": "patent US20120283175A1", "about": "“ANTIBACTERIAL COMPOSITIONS” (Achaogen, Inc., priority 2009, published 2012)", "key": {"[1]": {"system": "gram negative bacteria", "test": "Checkerboard synergy score at fractions of the antibacterial agent's MIC, with LpxCi-1, -2, -3", "type": "cell-based", "design": "scale not given here", "description": "Partial or full inhibition of LpxC should compromise the outer membrane and thus allow these synergizing agents to enter the cells and exert an antibacterial effect at concentrations where cells untreated with an LpxC inhibitor are unaffected. As a first step, checkerboard synergy assays for a variety of antibacterial agents were perform with several LpxC inhibitors, on several species of gram negative bacteria.\n(§1) Bacterial isolates were cultivated from −70° C. frozen stocks of the indicated strains by overnight passages at 35° C. in ambient air on Mueller-Hinton agar (Beckton Dickinson, Franklin Lakes, N.J.). Minimum Inhibitory Concentrations (MICs) were determined by the broth microdilution method in accordance with the Clinical and Laboratory Standards Institute (CLSI) guidelines. In brief, organism suspensions were adjusted to a 0.5 McFarland standard to yield a final inoculum between 3×10^5 and 7×10^5 colony-forming units (CFU)/mL. Drug dilutions and inocula were made in sterile, cation adjusted Mueller-Hinton Broth (Beckton Dickinson). An inoculum volume of 100 μL was added to wells containing 100 μL of broth with 2-fold serial dilutions of drug. All inoculated microdilution trays were incubated in ambient air at 35° C. for 18-24 hours. Following incubation, the lowest concentration of the drug that prevented visible growth (OD600 nm <0.05) was recorded as the MIC."}, "[2]": {"system": "K. pneumo. (ATCC43816)", "test": "Neutropenic thigh in vivo efficacy model (mice)", "design": "species or system Klebsiella pneumoniae; Static Dose, LpxC cmpd / Static Dose, LpxC in combination: unit not given here", "conditions": "for Static Dose, LpxC cmpd: LpxC compound alone; for Static Dose, LpxC in combination: combination agent Vanco (440 mg/kg/day)", "excerpt": "(§2) The model was run essentially as described by Craig and others (see Gudmundsson et al., “Murine Thigh Infection Model,” Handbook of Animal Models of Infection, M. A. Sande and O. Zak, Eds.; London: Academic Press, 1999, pp 137-144). Briefly, mice were rendered neutropenic prior to infection with 2 doses of cyclophosphamide, and then infected intramuscularly in the thigh with inocula of 10^3-10^5 CFU of either K. pneumo. (ATCC43816) or P. aeruginosa (ATCC27853). Antibiotics or vehicle alone as a negative control were administered twice at 2 hrs and 14 hrs post-infection. The animals were kept neutropenic for the duration of the experiment in order to minimize the effect of white blood cells on the infection such that the microbiological readout measures the in vivo interaction of drugs and bacteria. At 24 hrs post-infection, thighs were harvested, homogenized, and plated to measure the number of CFUs surviving per thigh. Thighs from a subset of animals were also harvested 2 hrs post-infection to record the CFUs present just prior to the first antibiotic treatment (pre-treatment)."}, "[3]": {"system": "Klebsiella pneumoniae (ATCC 43816)", "type": "in vivo", "conditions": "for Mean CFU/g thigh muscle (SEM): normal plates; for Mean CFU/g thigh muscle (SEM) / CFU/Drug Plate - Dilution 10^0 / CFU/Drug Plate - Dilution 10^−1: Vancomycin 25 mg/kg, LpxC-i 35 mg/kg; for CFU/Drug Plate - Dilution 10^0 / CFU/Drug Plate - Dilution 10^−1: per animal N 1-5", "description": "Vancomycin and LpxCi-5 were dissolved in 30% HPβCD (2-hydroxypropyl-β-cyclodextrin). Test substances were each administered subcutaneously (SC) singly or in combination to test animals at 2 hours and 14 hours after bacterial inoculation then bid daily for a total of 1, 2, 3 or 7 day(s). The dosing volume was 5 mL/kg.\nGroups of 5 or 10 male specific-pathogen-free CD-1 (Crl.) mice weighing 24±2 g were used. Animals were immunosuppressed by two or three intraperitoneal injections of cyclophosphamide, the first at 150 mg/kg 4 days before infection (day −4) and the second or third at 100 mg/kg 1 day before or 3 days after infection (day −1 or +3). On day 0, animals were inoculated intramuscularly (0.1 mL/thigh) into the right thigh with a specific number (1.35×10^7 CFU/mouse) of Klebsiella pneumoniae (ATCC 43816). Vehicle and test substances (singly or in combination) were each administered subcutaneously 2 hours and 14 hours after inoculation then bid for a total of 1, 2, 3 or 7 consecutive day(s). Groups at 24, 48, 72 hours and day 8 hours after treatment as the designated time of harvest, muscle of the right thigh was harvested from each of the survival test animals. An additional group with no treatment, at 2 hours after inoculation, the muscle of the right thigh was harvested and viable CFU on agar plates with or without drug were quantified by standard methods. Animals in groups designated for Day 8 harvest are 10 mice and daily tally of survivors were kept until harvest and recorded. A non-infected group was just treated with LpxCi-5 and kept out to Day 8 and then harvested. The removed muscle tissues were then homogenized in 3˜4 mL of PBS, pH 7.4, with a ceramic mortar. Homogenates of 0.1 mL were used for serial 10-fold dilutions and plated on Muller-Hinton Broth in 1.5% Bacto agar and plated in parallel with drug plates for CFU determination. The original inoculum was adjusted to 2×10^8 CFU/0.1 mL and then plated onto the 3 different drug plates of LpxCi-5 for CFU count.\nThe immunity of animals treated with vehicle or vancomycin alone was suppressed by two intraperitoneal injections of cyclophosphamide, the first was at 150 mg/kg 4 days before infection (day −4) and the second was at 100 mg/kg 1 day before infection (day −1). On day 0, test compound and vehicle were each administered subcutaneously at 2 and 14 hrs after animals were inoculated intramuscularly (0.1 mL/thigh) with 1.35×10^7 CFU/mouse of Klebsiella pneumoniae (ATCC 43816).\n(§3) The immunity of animals treated with LpxCi-5 alone was suppressed by two or three intraperitoneal injections of cyclophosphamide, the first was at 150 mg/kg 4 days before infection (day −4); the second and the third was at 100 mg/kg 1 day before and three days after infection (day −1 and day +3). On day 0, test compound were each administered subcutaneously bid at 2 and 14 hrs after animals were inoculated intramuscularly (0.1 mL/thigh) with 1.35×10^7 CFU/mouse of Klebsiella pneumoniae (ATCC 43816) for one, two, three or seven consecutive days. At 24, 48, 72 hours or at day 8 after treatment, muscle of the right thigh was harvested from each of the test animals for CFU determination in normal and drug plates.\nas §3, with “both vancomycin and the LpxC inhibitor, LpxCi-5,” for “LpxCi-5 alone”, “compounds in combination” for “compound”, “days.” for “days. At 24, 48, 72 hours or at day 8 after treatment, muscle of the right thigh was harvested from each of the test animals for CFU determination in normal and drug plates.”"}, "[4]": {"system": "P. aeruginosa (ATCC27853)", "excerpt": "as §2\nThis table focuses on the sensitive part of the LpxCi-4 dose response curve (30 mg/kg) by examining the mean log CFU at 0 or 24 hours, as well as the log change in CFU at 24 hours relative to zero hours (“ΔLogCFU vs […]”). Data is given for animals treated with vehicle, LpxCi-4 at 30 mg/kg, a second agent alone at the indicated doses or the combination of LpxCi-4 at 30 mg/kg plus the second agent at the indicated dose. The standard errors for each measurement are also given (n=5 animals/group). By comparing the observed drop in CFU of the combination with the sum of the drop in CFU associated with each of the two agents given separately, one can determine whether the combination is, in fact, synergistic in vivo."}, "[5]": {"system": "envA1 (D22) E. coli", "test": "MIC by broth microdilution, isogenic envA1 mutant strain", "type": "cell-based", "conditions": "Strain envA1 (D21)", "description": "as §1"}, "[6]": {"conditions": "with LpxCi-3, antibacterial agent at 1/16 MIC"}, "[7]": {"conditions": "with LpxCi-3, antibacterial agent at 1/64 MIC"}, "[8]": {"conditions": "with LpxCi-3, antibacterial agent at ¼ MIC"}, "[9]": {"conditions": "strain 27853, combination agent Vanco"}}, "note": "“And” between values parts separate entries of the source, which are not always exact repeats. Equal values may be shown once. Read-outs that look alike come from different tables or passages of the source. Throughout, for CFU/Drug Plate - Dilution 10^0: key: +: Too many colonies to permit accurate counting."}
{"smiles": "O=C(O)c1cn(C2CC2)c2cc(N3CCNCC3)c(F)cc2c1=O", "note": "[Ciprofloxacin]", "values": [{"measurement": "Synergy Score", "setting": "[1]; [6]", "value": 1.06}, {"measurement": "Synergy Score", "setting": "[1]; [7]", "value": 1.02}, {"measurement": "Synergy Score", "setting": "[1]; [8]", "value": 1.25}]}
{"smiles": "C[C@@H](O)[C@H]1C(=O)N2C(C(=O)O)=C(SCCN=CN)C[C@H]12", "note": "[Imipenem, imipenem]", "values": [{"measurement": "Synergy Score", "setting": "[1]; with LpxCi-1, antibacterial agent at 1/16 MIC", "value": 0.40}, {"measurement": "Synergy Score", "setting": "[1]; with LpxCi-1, antibacterial agent at 1/64 MIC", "value": ".035"}, {"measurement": "Synergy Score", "setting": "[1]; with LpxCi-1, antibacterial agent at ¼ MIC", "value": 0.58}, {"measurement": "Synergy Score", "setting": "[1]; with LpxCi-2, antibacterial agent at 1/16 MIC", "value": 1.06}, {"measurement": "Synergy Score", "setting": "[1]; with LpxCi-2, antibacterial agent at 1/64 MIC", "value": 1.02}, {"measurement": "Synergy Score", "setting": "[1]; with LpxCi-2, antibacterial agent at ¼ MIC", "value": 1.25}, {"measurement": "Synergy Score", "setting": "[1]; [6]", "value": 0.17}, {"measurement": "Synergy Score", "setting": "[1]; [7]", "value": 0.13}, {"measurement": "Synergy Score", "setting": "[1]; [8]", "value": 0.36}]}
{"smiles": "C[C@@H](O)[C@H](NC(=O)c1ccc(C#Cc2ccc(CN3CCOCC3)cc2)cc1)C(=O)NO", "note": "[LpxCi-3, N-((2S,3R)-3-hydroxy-1-(hydroxyamino)-1-oxobutan-2-yl)-4-((4-(morpholinomethyl)phenyl)ethynyl)benzamide]", "values": [{"measurement": "in vivo synergy with vancomycin", "setting": "[2]; bacterial strain ATCC43816", "value": "in vivo synergy"}, {"measurement": "Static Dose, LpxC cmpd", "setting": "[2]; strain 43816", "value": ">1000"}, {"measurement": "Static Dose, LpxC in combination", "setting": "[2]; strain 43816", "value": 107}]}
{"smiles": "CC(C)(N)[C@H](NC(=O)c1ccc(C#C/C=C/C2CC2)cc1)C(=O)NO", "note": "[LpxCi-5, (S,E)-N-(3-amino-1-(hydroxyamino)-3-methyl-1-oxobutan-2-yl)-4-(4-cyclopropylbut-3-en-1-ynyl)benzamide]", "values": [{"measurement": "Mean CFU/g thigh muscle (SEM)", "setting": "[3]; 24 hr, SC bid × 1", "value": "3.81 × 10^7 CFU/g"}, {"measurement": "CFU/Drug Plate - Dilution 10^0", "setting": "[3]; 24 hr, SC bid × 1", "value": "+"}, {"measurement": "CFU/Drug Plate - Dilution 10^−1", "setting": "[3]; 24 hr, SC bid × 1", "value": "780 CFU/Drug Plate and + (4×)"}, {"measurement": "Mean CFU/g thigh muscle (SEM)", "setting": "[3]; 48 hr, SC bid × 2", "value": "3.80 × 10^8 CFU/g"}, {"measurement": "CFU/Drug Plate - Dilution 10^0", "setting": "[3]; 48 hr, SC bid × 2", "value": "+"}, {"measurement": "CFU/Drug Plate - Dilution 10^−1", "setting": "[3]; 48 hr, SC bid × 2", "value": "+"}, {"measurement": "Mean CFU/g thigh muscle (SEM)", "setting": "[3]; 72 hr, SC bid × 3", "value": "1.48 × 10^9 CFU/g"}, {"measurement": "CFU/Drug Plate - Dilution 10^0", "setting": "[3]; 72 hr, SC bid × 3", "value": "+"}, {"measurement": "CFU/Drug Plate - Dilution 10^−1", "setting": "[3]; 72 hr, SC bid × 3", "value": "+"}, {"measurement": "Mean CFU/g thigh muscle (SEM)", "setting": "[3]; Day 8, SC bid × 7", "value": "all animals died"}, {"measurement": "protection of the animals", "setting": "[3]; LpxCi-5 at 35 mg/kg bid (70 mg/kg/day)", "value": "provides protection to the animals out to 72 hours"}, {"measurement": "resistant CFU present at 24, 48 and 72 hours", "setting": "[3]; LpxCi-5 at 35 mg/kg bid alone", "value": "> 10^3 CFU/thigh"}, {"measurement": "total burden of CFU by 72 hours", "setting": "[3]; LpxCi-5 at 35 mg/kg bid alone", "value": "> 10^9 CFU/thigh"}, {"measurement": "in vivo synergy and suppression of emergence of resistant mutants", "setting": "[3]; LpxCi-5 with Vancomycin", "value": "synergistic with Vancomycin in vivo"}, {"measurement": "survival to Day 8", "setting": "[3]; bid for seven consecutive days", "value": "All animals were dead by Day 8"}]}
{"smiles": "CC(C)(O)[C@H](NC(=O)c1ccc(C#CC#CC2CC2)cc1)C(=O)NO", "note": "[LpxCi-6, (S)-4-(cyclopropylbuta-1,3-diynyl)-N-(3-hydroxy-1-(hydroxyamino)-3-methyl-1-oxobutan-2-yl)benzamide]", "values": [{"measurement": "Static Dose, LpxC cmpd", "setting": "[2]; strain 43816", "value": 240}, {"measurement": "Fold Shift Static Dose", "setting": "[2]; strain 43816, combination agent Vanco", "value": 3, "unit": "x"}, {"measurement": "Static Dose, LpxC in combination", "setting": "[2]; strain 43816", "value": 80}, {"measurement": "in vivo synergy with vancomycin", "setting": "[4]; bacterial strain ATCC27853", "value": "in vivo synergy"}, {"measurement": "Static Dose, LpxC cmpd", "setting": "[4]; strain 27853, LpxC compound alone", "value": 269}, {"measurement": "Fold Shift Static Dose", "setting": "[4]; [9]", "value": 1.8, "unit": "x"}, {"measurement": "Static Dose, LpxC in combination", "setting": "[4]; [9]", "value": 151}]}
{"smiles": "Cc1onc(-c2ccccc2)c1C(=O)N[C@@H]1C(=O)N2[C@@H]1SC(C)(C)[C@@H]2C(=O)O", "note": "[Oxacillin, oxacillin]", "values": [{"measurement": "MIC", "setting": "[5]", "value": 16, "unit": "µg/mL"}, {"measurement": "ΔLogCFU vs 24 hr", "setting": "[4]; 24 hr, second block of Table 5, mg/kg/day b.i.d.: 3936 30, Eryth. 60, Dapto. 3, Oxacil. 100", "value": "−0.35"}, {"measurement": "Log CFU Mean", "setting": "[4]; 24 hr, second block of Table 5, mg/kg/day b.i.d.: 3936 30, Eryth. 60, Dapto. 3, Oxacil. 100, n=5", "value": 7.29}, {"measurement": "in vivo synergy with LpxC inhibitors", "setting": "[4]; P. aeruginosa (ATCC27853), summary", "value": "modest but potentially useful in vivo synergy"}]}
